Assay results taken from the NIST ThermoML archive (doi:10.1021/je400158p).
± gives the expanded uncertainty stated by the source.

Test: excess molar enthalpy (molar enthalpy of mixing); xn = mol fraction of the nth substance listed
Conditions: 298.15 K, 101 kPa, Liquid, Calvet calorimetry

SMILES	excess molar enthalpy (x1 = 0.1) [kcal/mol]	excess molar enthalpy (x1 = 0.2) [kcal/mol]	excess molar enthalpy (x1 = 0.4) [kcal/mol]	excess molar enthalpy (x1 = 0.7) [kcal/mol]	excess molar enthalpy (x1 = 0.5) [kcal/mol]	excess molar enthalpy (x1 = 0.401) [kcal/mol]	excess molar enthalpy (x1 = 0.501) [kcal/mol]	excess molar enthalpy (x1 = 0.804) [kcal/mol]
CCn1cc[n+](C)c1.COP(=O)([O-])OC [1-ethyl-3-methylimidazolium dimethylphosphate] + CCO	-0.311 ± 0.00406	-0.5184 ± 0.00478	-0.6726 ± 0.0055	-0.4333 ± 0.00406	–	–	–	–
CCn1cc[n+](C)c1.COP(=O)([O-])OC [1-ethyl-3-methylimidazolium dimethylphosphate] + CO	–	-0.6728 ± 0.0055	-0.8537 ± 0.00669	-0.5566 ± 0.00478	–	–	–	–
CCn1cc[n+](C)c1.COP(=O)([O-])OC [1-ethyl-3-methylimidazolium dimethylphosphate] + O	-0.881 ± 0.00813	-1.3 ± 0.0105	-1.463 ± 0.0115	-1.008 ± 0.00813	-1.381 ± 0.011	–	–	–
OCCOCCO [diethylene glycol] + O	–	-0.291 ± 0.00335	–	–	–	-0.291 ± 0.00335	-0.275 ± 0.00311	-0.111 ± 0.00263
